Data set [1] relates to recombinant human TAS2R9 (rhTAS2R9). Nature of the data set: Phage ELISA on recombinant human TAS2R9 (in-proteo ELISA). It counts as binding. The following applies: 4 × 10^9 pfu phage; absorbance 650 nm, 35 min after TMB; normalized to M13KE; 1 h RT; n = 3, p < 0.05. As for the experimental part: Thus, we hypothesized that their binding partners could serve as potential cellular markers and therapeutic targets for CAFs. Using a phage display-based functional proteomics approach, wild-type (WT) M13KE phage or phage displaying CAF selective peptides (phHTTIPKV and phAPPIMSV) were incubated with PDAC patient-derived CAFs allowing the phage to serve as “bait.” Phage were chemically modified to crosslink to their cell surface binding partner, then phage pull-down samples were resolved via SDS-PAGE. […] In-proteo ELISA experiments were performed to evaluate the specific binding of phHTTIPKV to recombinant human TAS2R9 (rhTAS2R9). Phage displaying KTLLPTP (phKTLLPTP), a PDAC epithelial cell-specific peptide, served as a negative control. […]
Figure 1 TAS2R9 expression in CAFs isolated from human PDAC. […] (B) 4 × 10^9 pfu phHTTIPKV and a PDAC specific phage, phKTLLPTP, were applied to rhTAS2R9 to determine the absorbance of phage binding to rhTAS2R9 at 650 nm. The absorbance of both phage were normalized to the absorbance detected from rhTAS2R9 bound to the wild-type M13Ke phage. n = 3, * p < 0.05. […]
About 100 μL of 0.1 μg/mL rhTAS2R9 (Novus Biological, Littleton, CO, USA) was plated in 96-well plates overnight at 4 °C. […] The absorbance was measured on a microplate reader at 650 nm at 35 min post addition of TMB

Data set [2] concerns CAFs isolated from the stroma of PDAC patients. The following applies: cited from earlier work; for Specificity and selectivity for CAFs: CAFs isolated from the stroma of PDAC patients.
In data set [3] the test system is PDAC patient-derived CAFs (TAS2R9). Nature of the data set: Phage display-based pulldown from PDAC patient-derived CAFs with MS/MS identification. It counts as binding, human. Particulars: SDS-PAGE, compared with WT M13KE phage and phAPPIMSV. On the procedure: Thus, we hypothesized that their binding partners could serve as potential cellular markers and therapeutic targets for CAFs. Using a phage display-based functional proteomics approach, wild-type (WT) M13KE phage or phage displaying CAF selective peptides (phHTTIPKV and phAPPIMSV) were incubated with PDAC patient-derived CAFs allowing the phage to serve as “bait.” Phage were chemically modified to crosslink to their cell surface binding partner, then phage pull-down samples were resolved via SDS-PAGE. […] In-proteo ELISA experiments were performed to evaluate the specific binding of phHTTIPKV to recombinant human TAS2R9 (rhTAS2R9). Phage displaying KTLLPTP (phKTLLPTP), a PDAC epithelial cell-specific peptide, served as a negative control. […] Therefore, we pursued validation of TAS2R9 as HTTIPKV’s target and as a novel CAF-selective cell surface marker.
Figure 1 TAS2R9 expression in CAFs isolated from human PDAC. (A) Phage pulldowns from PDAC patient-derived CAFs by the M13Ke (lane 1) and CAF-specific phages, phAPPIMSV and phHTTIPKV (lane 2 and 3). […] (B) 4 × 10^9 pfu phHTTIPKV and a PDAC specific phage, phKTLLPTP, were applied to rhTAS2R9 to determine the absorbance of phage binding to rhTAS2R9 at 650 nm. The absorbance of both phage were normalized to the absorbance detected from rhTAS2R9 bound to the wild-type M13Ke phage. n = 3, * p < 0.05. […]

The subject of the next data set is CXCR2. The following applies: cited from earlier work. From the text: To further evaluate pharmacodynamics, we characterized CXCR2 inhibition as a surrogate for the delivery of SB225002. Tumors from all groups were fixed and paraffin embedded for immunohistochemistry staining. […] Furthermore, the inhibition of angiogenesis has been cited as a contributing factor to th ...

The test system of a further data set is KPC mice. The following applies: cited from earlier work. From the text:
CXCR2 antagonists have been explored in non-cancer lung diseases (e.g., NCT01255592, NCT01006616) and in certain cancers such as castration-resistant prostate cancer (NCT03177187) and squamous cell carcinoma of the head and neck (NCT02499328).

The next data set relates to Ki67. Nature of the data set: Ki67 staining of tumor sections (cell proliferation). It counts as in vivo, mouse (athymic nude). Particulars: ImageJ; p < 0.01. On the procedure:
Tumor sections were blocked for 1 h in blocking buffer, and incubated with FITC-conjugated anti-CD31 (BD biosciences, 1:100, 20 min) then anti-rat secondary (1:250, 20 min), or anti-Ki67 (Abcam, 1:250, 20 min) then anti-rabbit secondary (1:250, 20 min). Images were collected using ZEISS LSM-880 Confocal Laser Scanning Microscope (Carl Zeiss Meditec, Inc., Jena, Germany). Mander’s correlation coefficients were determined using the JACoP plugin in ImageJ (National Institute of Health, Bethesda, MD, USA) for the colocalization analysis. To characterize CD31 and Ki67 expression, the area fraction of the positive pixels was measured for each image using the Measurement Tool in ImageJ. Section averages were entered into Prism to find overall means for each treatment group and tested for statistical significance between groups using the Student’s t-test.
The drug dosage was calculated for each treatment to achieve the same weekly amount of Sb225002 given per animal. Tumor volume was measured with calipers twice weekly until day 19, at which time the tumors were harvested for cell proliferation (Ki67) and angiogenesis (CD31) analysis, and CXCR2 IHC staining.

The conditions of data set [4]: all dose levels up to 240 mg; cited from earlier work. From the text: While mounting evidence points to a role of bitter taste receptors in cancer epithelial cells and in Tuft cells, this report, is to our knowledge, the first indication that TAS2R9 is expressed on CAFs. The fact that TAS2R9 is overexpressed in 7.33% of human PDAC tissue, and that its expression in pancreatic CAFs is 57-fold higher than in the human dermal fibroblast raises the interesting question of what role TAS2R9 may play in CAFs. In particular, the revelation that TAS2R9 mRNA expression ...

Data set [5] deals with T1, recombinant human TAS2R9 (rhTAS2R9) (human) (UniProt Q9NYW1).
T1 sequence (Q9NYW1 whole entry, looked up): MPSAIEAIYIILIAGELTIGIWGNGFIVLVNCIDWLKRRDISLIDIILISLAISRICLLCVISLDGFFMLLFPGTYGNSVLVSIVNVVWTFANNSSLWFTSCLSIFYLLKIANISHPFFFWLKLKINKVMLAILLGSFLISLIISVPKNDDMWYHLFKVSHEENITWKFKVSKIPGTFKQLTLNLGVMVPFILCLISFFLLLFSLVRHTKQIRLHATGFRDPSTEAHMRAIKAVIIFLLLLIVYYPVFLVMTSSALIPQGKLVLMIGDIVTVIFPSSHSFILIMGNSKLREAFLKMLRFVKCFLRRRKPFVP
Nature of the data set: ELISA; 0.1 ug/mL rhTAS2R9 coated on 96-well plates overnight at 4 °C, 5% milk block, 40 uL phage at 1 x 10^8 pfu/uL for 1 h at room temperature, HRP anti-M13 antibody, absorbance at 650 nm; normalised to wild-type M13KE phage. (In an ELISA, binding on a coated surface is turned into a signal by an enzyme label.)

HTTIPKV [phHTTIPKV]: the “Increase in specific binding to rhTAS2R9 compared to phKTLLPTP” value in data set [1] stood at 2.72 fold.

For HTTIPKV, the “Specificity and selectivity for CAFs” value in data set [2] is “high specificity and selectivity for CAFs”. Besides, the “Selectivity for CAFs in vitro and in vivo” value in data set [2] (signature database of 56 cell lines and tissues) was “selective for CAFs across in vitro and in vivo experiments”. In addition, the “Unique band in phage pulldown” value in data set [3] was “presence of a unique band”.

For the molecule APPIMSV, the “Specificity and selectivity for CAFs” value in data set [2] was “high specificity and selectivity for CAFs”.

With `O=C(Nc1ccc([N+](=O)[O-])cc1O)Nc1ccccc1Br` [SB225002], the “Contribution to anti-tumor effects: angiogenesis” value with CXCR2 is recorded as “inhibition of angiogenesis has been cited as a contributing factor to the anti-tumor effects”. The “Survival of KPC mice” value in the data set on KPC mice is recorded as “profoundly prolong survival in KPC mice”. Also, in the data set with Ki67, the “Ki67+ area fraction (cell proliferation)” value is “significant reduction in Ki67+ area fraction”.

In the case of `CC(=O)[O-].CC[N+](CC)(CC(=O)Nc1c(C)cccc1C)Cc1ccccc1` [pan-TAS2R agonist, Denatonium Acetate], the “Tolerability in phase one clinical trial” value in data set [4] is recorded as “well tolerated at all dose levels up to 240 mg”.

For HTTIPKV [phage displaying HTTIPKV (phHTTIPKV)], the fold specific binding against phKTLLPTP (each normalised to M13KE phage) in data set [5] was 2.72 fold.

Values taken from paper PMC10058050, “A Bitter Taste Receptor as a Novel Molecular Target on Cancer-Associated Fibroblasts in Pancreatic Ductal Adenocarcinoma” (Pharmaceuticals, 2023).
